# According to patent US20110117154A1, “USE OF RIFALAZIL TO TREAT COLONIC DISORDERS” (ACTIVBIOTICS PHARMA, LLC, priority 2008, published 2011):
# System: C. difficile
# Assay: CDAD treatment in hamsters infected with C. difficile
# Assay type: in vivo
# Conditions: for survival of hamsters infected with C. difficile: treated at the time of infection
# Procedure: Optimal dosages and formulations of Rifalazil alone, or in combination with a second drug compound, can be determined using standard animal models known in the art. One example of an animal model for C. difficile associated disease is the Golden Syrian hamster. To determine the optimal dosage regimen of Rifalazil, Golden Syrian hamsters are injected subcutaneously with clindamycin phosphate (10 mg/kg) followed, 24 hours later, by oral gavage with 10^5 colony forming units (CFU) of C. difficile. Antibiotic treatment is then administered orally, either simultaneously or 24 hours after C. difficile administration Animals are monitored for survival, weight variations, identification of C. difficile toxins in cecal content, and histologic damage to ceca as compared to animals treated with a prophylactic protocol using standard methods known in the art (see, for example, Anton P. M. et al., Abstract ID No. 102471, Publishing ID No. T1741, presented at the American Gastroenterological Association Meeting, May 17-22, 2003; Anton P. M. et al., Gastroenterology 124:A558, 2003).
# Hamsters were infected with C. difficile, and at the time of infection, were also treated with vancomycin (50 mg/kg) or Rifalazil (2 mg/kg).
# [1] = microgranulated formulation, systemic administration, relatively high doses (FIG. 1)
SMILES,survival of hamsters infected with C. difficile (Rifalazil 2 mg/kg),relapses of CDAD in in vivo animal experiments [1],treatment of CDAD in in vivo animal experiments [1],survival of hamsters infected with C. difficile (vancomycin 50 mg/kg)
"CO[C@H]1/C=C/O[C@@]2(C)Oc3c(C)c(O)c4c(=O)c(c5oc6cc(N7CCN(CC(C)C)CC7)cc(O)c6nc-5c4c3C2=O)NC(=O)/C(C)=C\C=C\[C@H](C)[C@H](O)[C@@H](C)[C@@H](O)[C@@H](C)[C@H](OC(C)=O)[C@@H]1C [Rifalazil, 3′-hydroxy-5′-(4-isobutyl-1-piperazinyl) benzoxazinorifamycin]",All animals treated with Rifalazil survived,no relapses were observed,effectively treated,–
"CN[C@H](CC(C)C)C(=O)N[C@H]1C(=O)N[C@@H](CC(N)=O)C(=O)N[C@H]2C(=O)N[C@H]3C(=O)N[C@H](C(=O)N[C@H](C(=O)O)c4cc(O)cc(O)c4-c4cc3ccc4O)[C@H](O)c3ccc(c(Cl)c3)Oc3cc2cc(c3O[C@@H]2O[C@H](CO)[C@@H](O)[C@H](O)[C@H]2O[C@H]2C[C@](C)(N)[C@H](O)[C@H](C)O2)Oc2ccc(cc2Cl)[C@H]1O [vancomycin, reference compound]",–,–,–,eventually succumbed to the infection
